Data as given in patent US6632981B1, “DNA sequences encoding polypeptides having beta-1,3-glucanase activity” (Novartis Finance Corporation, priority 1988, dated 2003).

Experiments:
chimeric PR-1a/GUS gene [1] = assay: GUS induction in transformed tobacco callus; type: cell-based, Nicotiana tabacum
Protocol: Agrobacterium strains containing the appropriate vectors are used to transform callus forming from the leaf disks (Example 112). Callus forming on kanamycin-containing MSBN selection medium is maintained on a callus growth medium comprised of MS major, minor salts and Fe-EDTA (Gibco #500-1117; 4.3 g/l), MS vitamins, 100 mg/l myo-inositol, 20 g/l sucrose, 2 mg/l naphthaleneacetic acid and 0.3 mg/l kinetin.
The callus can be used to regenerate transgenic plants by transferring callus pieces to MSBN medium and following methods described in Examples 111 and 112. The callus is also used to measure gene induction following application of inducing chemicals and to screen for gene inducing chemicals.
A. Callus obtained according to previously described procedures is assayed for chemical induction by applying with a sterile paint brush or a plant mister a filter sterilized solution of 0.1 to 50 mM salicylic acid which has been adjusted to a pH between 6.0 and 8.0 by the addition of NaOH. […]
(3) Methyl benzo-1,2,3-thiadiazole-7-carboxylate. The solution is made by resuspending a wettable powder containing the chemical in sterile water for several minutes at a concentration of 1 mg/ml. Insoluble solid is removed from the solution by filter sterilizing.
Frozen leaf tissue is ground in a mortar with a pestle in the presence of liquid nitrogen to produce a fine powder. […]
The reactions are carried out in the wells of ELISA plates by mixing 5-25 l extract with 120-100 l GUS assay buffer (50 mM sodium phosphate buffer pH 7.0, 0.1% Triton X-100, 10 mM β-mercaptoethanol) containing 4-methyl umbelliferyl glucuronide (MU) at a final concentration of 2 mM in a total volume of 125 l. […] The concentration of fluorescent indicator released is determined by reading the plate on a Flow Labs Fluoroskan II ELISA plate reader. […]

chimeric PR-1a/GUS gene [2] = assay: GUS induction in transformed carrot callus; type: cell-based; conditions: carrot callus transformed by pCIB271; 50 mM sodium salicylate or 250 g/l methyl ester spray; 21 hours; H2O spray 5.2
Protocol: To surface sterilize the carrots they are peeled and then soaked 20 minutes in a 10% solution of chlorox. The carrots are rinsed with sterile water, sliced into 5 mm pieces and placed basal side up onto water agar. 20-50 l of bacteria are then applied to the upper surface of the discs. After 7 days the discs are transferred to 0.7% agar containing MS salts, 3% sucrose, 0.1 mg/l 2,4-D, […] kanamycin, 100 µg/ml carbenicillin, and 100 µg/ml mefoxin. Callus forming around the cambial ring is excised and placed on 0.7% MS agar supplemented with 3% sucrose, 0.1 mg/l 2,4-D, […] kanamycin, 100 µg/ml carbenicillin, and 100 µg/ml mefoxin. After the callus has been grown it is cut into small pieces and randomized onto four plates of the same media. […]
The reactions are carried out in the wells of ELISA plates by mixing 5-25 l extract with 120-100 l GUS assay buffer (50 mM sodium phosphate buffer pH 7.0, 0.1% Triton X-100, 10 mM β-mercaptoethanol) containing 4-methyl umbelliferyl glucuronide (MU) at a final concentration of 2 mM in a total volume of 125 l. […] The concentration of fluorescent indicator released is determined by reading the plate on a Flow Labs Fluoroskan II ELISA plate reader.

endogenous PR-1a gene = assay: Assay for chemical induction of the endogenous PR-1a gene (mRNA, primer extension); type: in vivo; conditions: tobacco plant materials, control procedure
Protocol: 50 g of total RNA is lyophilized in a 500 l Eppendorf tube. The RNA is resuspended in 30 l of radiolabeled probe solution and heated to 70′ C. for 10 minutes. The tube is slowly cooled to 37° C. and allowed to incubate overnight. Without removing the tube from the 37° C. water bath, 2 l of 10×reverse-transcriptase buffer (500 mM Tris-HCl, pH 7.5, 400 mM KCl, 30 mM MgCl2), 1 l 5 mg/ml bovine serum albumin, 5 l 100 mM dithiothreitol, 5 l 10×dNTPs (10 mM of each dNTP in H2O), 3 l H 20, 2 l RNasin (80 units), and 2 l reverse transcriptase (400 units) are added and the reaction is incubated at 37° C. for 30 minutes. To stop the reaction, 5 l of 3 M sodium acetate, pH 5, and 150 l absolute ethanol are added. The tube is left at −20° C. for 30 minutes, the precipitate is collected by centrifugation, washed with 80% ethanol and allowed to air-dry. The precipitate is resuspended in 10-20 l of loading dye (90% formamide, 0.05% bromophenol blue, 0.05% xylene cyanol, 1 mM EDTA) and the extension products are separated on a 6% sequencing gel (Maniatis, T. et al., supra). Extension products are visualized by autoradiography.
As a control procedure, tobacco plant materials induced as described in Examples 139-141 by salicylic acid, methyl benzo-1,2,3-thiadiazole-7-carboxylate and TMV are assayed for transcription of mRNA from the endogenous PR-1a gene by the methods described in Example 6.

Row | Structure (SMILES) | GUS activities (chimeric PR-1a/GUS gene [1]; tobacco callus transformed with CIB271, 50 mM spray, harvested 21 hours after treatment, H2O spray 1.8) [nKat MU/mg protein] | GUS activities (chimeric PR-1a/GUS gene [2]) [pKat MU/mg protein] | transcription of mRNA from the endogenous PR-1a gene (endogenous PR-1a gene) | GUS activities (chimeric PR-1a/GUS gene [1]; tobacco callus transformed with CIB271 (different experiment), 250 g/l spray, 21 hours, H2O spray 2.8) [nKat MU/mg protein] | GUS activities (chimeric PR-1a/GUS gene [1]; tobacco callus transformed with CIB273, 250 g/l spray, 21 hours, H2O spray 0.46) [nKat MU/mg protein]
1 | O=C(O)c1ccccc1O [Salicylic acid, salicylic acid] | 3.8 | 11.6 | Elevated levels of mRNA |  | 
2 | COC(=O)c1cccc2nnsc12 [Methyl benzo-1,2,3-thiadiazole-7-carboxylate] |  | 22.1 | Elevated levels of mRNA | 13.7 | 31.2
